Values of other authors, collected in the PKSmart pharmacokinetics tables (Seal et al. 2025).

What was measured:
[1] = Lombardo, Berellini, Obach 2018, Drug Metab Dispos 46:1466, doi 10.1124/dmd.118.082966; conditions: human; for MRT / Vd / half-life / clearance: in vivo, iv; for fraction unbound: plasma
[2] = Lombardo et al. 2013, J Clin Pharmacol 53:178, doi 10.1177/0091270012440282; conditions: for Vd / clearance: in vivo, iv; for fraction unbound: plasma

Row | SMILES | MRT [1] [h] | Vd [1] [L/kg] | half-life [1] [h] | Vd ([2]; rat) [L/kg] | fraction unbound ([2]; rat) | clearance [1] [mL/min/kg] | fraction unbound [1] | Vd ([2]; dog) [L/kg] | clearance ([2]; dog) [mL/min/kg] | fraction unbound ([2]; dog) | clearance ([2]; rat) [mL/min/kg] | Vd ([2]; monkey) [L/kg] | clearance ([2]; monkey) [mL/min/kg] | fraction unbound ([2]; monkey)
1 | CC(C)(C)NC(=O)C1C[C@@H]2CCCC[C@@H]2CN1C[C@@H](O)[C@H](Cc1ccccc1)NC(=O)C(CC(N)=O)NC(=O)c1ccc2ccccc2n1 (stereo not given in full) | 4.6 | 3.6 | 13 | 3 | 0.007 | – | – | – | – | – | – | – | – | –
2 | CO[C@@]1(NC(=O)Cc2cccs2)C(=O)N2C(C(=O)O)=C(COC(N)=O)CS[C@@H]21 | 0.79 | 0.17 | 0.81 | – | – | 3.6 | 0.73 | 0.6 | 11 | – | – | – | – | –
3 | CNCCCN1c2ccccc2CCc2ccccc21 | 23 | 15 | 22 | 19.8 | – | – | – | – | – | – | – | – | – | –
4 | CC(C)NCC(O)COc1cccc2[nH]ccc12 (stereo not given) | 2.6 | 1.2 | 2.2 | 1.36 | – | – | – | 17 | – | – | – | – | – | –
5 | COC(=O)C1[C@@H](OC(=O)c2ccccc2)C[C@@H]2CC[C@H]1N2C (stereo not given in full) | 1 | 2 | 0.76 | 16.4 | 0.78 | 32 | 0.12 | 2.6 | 48.7 | 0.76 | 253 | – | – | –
6 | Nc1ncnc2c1ncn2CCOCP(=O)(O)O | 1.9 | 0.42 | 1.6 | 1.6 | – | 3.7 | – | 1.3 | 5.3 | – | 22 | 0.81 | 16 | –
7 | COc1ccc(CCNCC(O)COc2cccc(C)c2)cc1OC (stereo not given) | 2 | 0.67 | 1.9 | – | 0.06 | 5.5 | 0.015 | 4 | 45 | 0.04 | – | – | – | –
8 | CC1COc2c(N3CCN(C)CC3)c(F)cc3c(=O)c(C(=O)O)cn1c23 (stereo not given) | 11 | 1.6 | 8.9 | 1.42 | – | 2.5 | – | 1.3 | 23.2 | 0.51 | 13.2 | – | – | 0.71
9 | CCN(C(C)=O)c1cccc(-c2ccnc3c(C#N)cnn23)c1 | 1.4 | 1.3 | – | 1.72 | – | – | 0.4 | – | – | – | 20.7 | – | – | –
10 | CON=C(C(=O)NC1C(=O)N2C(C(=O)O)=C(CSc3nnnn3C)CS[C@H]12)c1csc(N)n1 (stereo not given in full) | 0.77 | 0.2 | 0.89 | 0.28 | – | 3.65 | 0.31 | 0.3 | 8.91 | – | 7.46 | – | – | –
11 | CN(C)CCCC1(c2ccc(F)cc2)OCc2cc(C#N)ccc21 (stereo not given) | 47 | – | 33 | 21 | 0.26 | 4.3 | – | 10 | 14 | 0.444 | 82 | 10 | 40 | 0.399
12 | C[C@H]1[C@H](OC(=O)CCC(=O)O)O[C@@H]2O[C@@]3(C)CC[C@H]4[C@H](C)CC[C@@H]1[C@@]24OO3 | 0.32 | – | 0.22 | – | 0.22 | 1070 | 0.25 | – | 44 | 0.181 | 212 | – | – | –
13 | Nc1ccn([C@H]2CC[C@@H](CO)O2)c(=O)n1 | – | – | – | 1 | 0.85 | – | 0.96 | – | – | – | 11.2 | 0.98 | 10.3 | –
14 | NC(=O)OC[C@@H]1C(=NC(=O)C(NOCC(=O)O)c2csc(N)n2)C(=O)N1S(=O)(=O)O (stereo not given in full) | 2 | 0.18 | 1.6 | 0.1 | 0.7 | 1.5 | 0.72 | 0.1 | 5.5 | 0.89 | 22 | 0.12 | 4.5 | 0.76
